PMC12040169 (PLOS Biology, 2025)

Assay: in vitro
Conditions: human, hela cells, % viability

SMILES	viability at 28.5 h, 10 µM [%]
O=C(NN=C1CCCCCCCCCCC1)c1cc2ccccc2cc1O [CBK261706]	102
CC(C)NC(=O)Nc1ccc(C(=O)N(CCC#N)Cc2ccco2)cc1 [CBK305999]	82.3
CN(C)CCCN(Cc1cnn(C)c1)Cc1ccco1 [CBK283039]	112
COc1ccccc1Nc1nc(N)nc(CSc2ncccn2)n1 [CBK266734]	104
CCOC(=O)c1c(/N=C/c2cc(I)cc(I)c2O)sc2c1CCN(Cc1ccccc1)C2 [CBK262246]	106
O=C(NC(c1ccccc1)c1ccccc1)N1CCN(Cc2ccccc2)CC1 [CBK155630]	86.3
Cc1cc(S(=O)(=O)NCCn2nc(C)c(C)c2C)ccc1F [CBK281382]	71.9
Cc1noc2nc(-c3ccccc3F)cc(C(=O)N3CCCC3c3nnc4ccccn34)c12 (centres unmarked) [CBK296756]	93.2
CCCC(C)C(=O)Nc1ccncc1 (centres unmarked) [CBK057984]	87.1
COCCn1ccnc1C1CCN(C(=O)COc2cccc(F)c2)CC1 [CBK307362]	91.3
OC1(c2cccnc2F)CCN(Cc2cccc(F)c2F)CC1 [CBK284375]	96.2
CC(C(=O)N1CCCCC1)n1sc2ccccc2c1=O (centres unmarked) [CBK116322]	98.4
O=C(O)[C@@H]1CCCN1C(=O)CCn1nnc2ccccc2c1=O [CBK286765]	83.6
CCNC(=O)c1c(O)nc2ccccc2c1O [CBK262450]	103
O=C1COc2ccccc2CCCC[C@@H]2CN(C(=O)Cn3ccc(=O)[nH]c3=O)CC[C@H]2N1 [CBK292048]	102
c1ccc(SCCCSc2ccccn2)cc1 [CBK021704]	87
CS(=O)(=O)Nc1cc2cccnc2c(-c2ccccc2)n1 [CBK061928]	95.5
CCC1(CC)OC(NC[C@@H](C)c2ccccc2)=NC1=O [CBK123983]	116
COc1ccc2c(c1)C(O)C(NCc1ccccc1)C2 (centres unmarked) [CBK015469C]	104
COc1cnc(/C=C\c2ccccc2)c(NC(=O)c2ccco2)n1 [CBK145361]	90.4
O=C1CCC(=O)N1CCOc1nccnc1OC1CCN(Cc2ccc(Cl)cc2)CC1 [CBK084338]	108
Cc1ccc2cc(CN(Cc3ccco3)S(C)(=O)=O)c(O)nc2c1 [CBK269409]	105
COc1cncc(-c2cc(Nc3ccc(OC)c(OC)c3)ncn2)c1 [CBK090824]	92

SMILES	viability at 28.5 h, 10 µM [%]
Fc1ccc2c3c([nH]c2c1)C1(CCN(Cc2cc(F)c(F)c(F)c2)CC1)NCC3 [CBK039688]	108
COc1ccccc1-n1nc(-c2ccncc2)nc1C1CCOCC1 [CBK307229]	95
Cc1ccc(N(CC(=O)O)S(C)(=O)=O)cc1C [CBK286978]	87.1
c1ccc(Cn2cncc2-c2cncn2CCCN2CCCCC2)cc1 [CBK281490]	114
CCOc1cc(C#N)cc(I)c1OCC(=O)O [CBK266326]	96.9
O=C(CSc1ncn(-c2ccccc2)n1)Nc1ccccc1Cl [CBK265593]	104
CCc1ccc(OCC(=O)Nc2ccc3oc(-c4ccc(F)cc4Cl)nc3c2)cc1 [CBK265010]	100
Cc1ccccc1OC(C)C(=O)Nn1cnnc1 (centres unmarked) [CBK268619]	96.2
CSCCC(NC(=O)c1ccccc1NC(=O)c1ccc(C)cc1)C(=O)O (centres unmarked) [CBK296067]	94.1
O=C(O)c1ccccc1OCCCCOc1cccc2cccnc12 [CBK264136]	87.2
Cc1cc(C=O)c(C)n1-c1ccc(Oc2ccc([N+](=O)[O-])cn2)cc1 [CBK264167]	99.9
O=C1c2ccccc2C(=O)N1CN(CCc1ccc(Cl)cc1)CN1C(=O)c2ccccc2C1=O [CBK225934]	90.8
O=C(O)Cc1sc(NCCN2CCOCC2)nc1-c1ccccc1 [CBK200113T]	88.7
Cc1ccccc1Sc1cc(C(F)(F)F)ccn1 [CBK115233]	94.4
N#Cc1sc2nc(-c3ccncc3)ccc2c1N [CBK288547]	78.3
O=C(Cc1cc(F)cc(F)c1F)Nc1ccc2[nH]ccc2c1 [CBK159686]	87.4
C/C(CCS(=O)(=O)c1ccc(Br)cc1)=N\NC(N)=S [CBK261370]	102
CCOc1ccc2c(c1)cc(C(=O)N(C)CC(F)(F)F)n2C [CBK281509]	80.7
COC(=O)c1cc(=O)c2ccccc2o1 [CBK000064]	91.8
COc1cc2c(cc1OC)C(C(=O)O)CC(=O)N2 (centres unmarked) [CBK218955]	87.4
O=C(C1=C(O)C(=O)N(CCCn2ccnc2)C1c1cccc([N+](=O)[O-])c1)c1ccc(F)cc1 (centres unmarked) [CBK264571]	97.8
COC(=O)c1cn(Cc2ccccc2)nn1 [CBK073903]	98.1
CC(C(=O)NCCc1ccncc1)n1cnc2ccccc21 (centres unmarked) [CBK282202]	103

SMILES	viability at 28.5 h, 10 µM [%]
CNC(=O)Oc1cc(C)c(SC)c(C)c1 [CBK010586]	77.2
Cc1ccccc1CSCCNC(=O)Nc1ccc(Cl)cc1 [CBK268669]	101
N#Cc1c2ccccc2cn1Cc1cccc(Cl)c1 [CBK019531]	82.6
CCSC(C)CC1C/C(=N/O)c2c(C)noc2C1 (centres unmarked) [CBK021455]	88.4
CCN(CC)C(=O)CN1CCC(Oc2nccnc2OC2CCCCC2)CC1 [CBK082866T]	87
O=C(O)C1C(c2ccccc2)C(C(=O)Oc2cccc3ccccc23)C1c1ccccc1 (centres unmarked) [CBK263869]	110
O=S(=O)(/C=C/c1ccccc1)Nc1cccc2cc[nH]c12 [CBK155788]	82.7
Cc1nc2n(n1)C(c1ccccn1)C1=C(CC(C)CC1=O)N2 (centres unmarked) [CBK288230]	82.9
CC(C)(C)C1CCc2c(sc(NC(=O)c3cccs3)c2C(N)=O)C1 (centres unmarked) [CBK307114]	85.4
Cc1cc(NS(=O)(=O)c2cccc(Cl)c2C)n[nH]1 [CBK024382]	91.2
O=C(Nc1nc2ccc(Br)cc2s1)C1CC1 [CBK026046]	108
COc1ccc(-c2cnc(N)c(NCC(C)C)n2)c(OC)c1OC [CBK063855]	95.4
COc1cc(CNc2cncc(-c3cccs3)n2)cc(OC)c1OC [CBK065526]	106
Cc1sc2ncn(CC(=O)Nc3cccnc3)c(=O)c2c1C [CBK306057]	92.5
CCOc1cc(C)c(-c2cc(N)[nH]n2)cc1OCC [CBK288216]	85.9
Cc1nc(-c2cccnc2)[nH]c(=O)c1CC(=O)N1CCSCC1 [CBK305944]	90.7
CN(Cc1ccc(N2CCCCC2)cc1)S(=O)(=O)c1ccsc1C(=O)O [CBK295333]	85.5
CCOc1cc(C(=S)N2CCCCC2)ccc1OC(=O)c1ccccc1Cl [CBK019660]	98.9
CC1(C)C(CC(=O)NC2CCCCC2)CC1C(=O)NC1CCCCC1 (centres unmarked) [CBK009260]	98.8
O=C(O)/C(Cl)=C(\Cl)C(=O)N1CCC2(CC1)OCCc1c2[nH]c2ccccc12 [CBK047035]	85
Cc1nn(C)c(Sc2ccccc2)c1[N+](=O)[O-] [CBK002937]	97.9
CCc1ccc(S(=O)(=O)N2CCN(C(c3ccccc3)c3ccccc3)CC2)cc1 [CBK093948]	98.6
CN(CC(=O)NCC1CCN(c2cccc(Cl)c2)C1)Cc1cccnc1 (centres unmarked) [CBK306761]	93.4

SMILES	viability at 28.5 h, 10 µM [%]
Cc1cc(S(=O)(=O)NCC(=O)O)ccc1F [CBK266632]	112
Cc1noc(C)c1S(=O)(=O)Nc1c(C(=O)N2CCN(C)CC2)[nH]c2ccccc12 [CBK050057]	98.9
O=C(NNC(=O)C(O)c1ccccc1)NC1CCCCC1 (centres unmarked) [CBK262625]	106
CC(=O)NCC(=O)N(c1ccccc1)C1(C(=O)NC(c2ccccc2)c2ccccc2)CCCC1 [CBK100884]	102
O=C(O)C1(Oc2ccc3ncccc3c2)CCN(C2CCCCC2)CC1 [CBK306591]	92.4
O=C(CCCN1C(=O)c2cccc3cccc(c23)C1=O)Nc1cccnc1 [CBK262560]	81.5
COc1ccccc1-c1nccnc1OCCn1cnc2c1c(=O)n(C)c(=O)n2C [CBK106816]	109
COc1ccc(/C=N/NS(C)(=O)=O)cc1 [CBK261981]	108
COc1ccc(Cl)c(Cn2c(NCc3ccccn3)nc3c2c(=O)n(C)c(=O)n3C)c1 [CBK268965]	97.6
CCOC(=O)c1c(CN2CCCC2)nc2c3ccccc3ccn12 [CBK267521C]	107
CC(=O)c1cc2c(cc1NC(=O)CSc1ccccn1)OCO2 [CBK266225]	94.2
NS(=O)(=O)c1ccc(NC(=O)CSc2nc3sc4c(c3c(=O)n2-c2ccc(Cl)cc2)CCCC4)cc1 [CBK267577]	91.9
Cc1c(Cl)cccc1N1CCN(S(=O)(=O)CC23CCC(CC2=O)C3(C)C)CC1 (centres unmarked) [CBK269257]	96.1
O=C(c1cccc(F)c1)N1CCC(O)(c2cccnc2F)CC1 [CBK284357]	92.2
Cn1nc(C2CCN(C(=O)CC3CCCC3)CC2)c2cccnc21 [CBK284943]	111
Cc1ccc(S(=O)(=O)N2CC[C@H](c3nnc(-c4ccccc4)o3)C2)cc1 [CBK289405]	111
NC(=O)CO[C@@H]1CO[C@H]2[C@@H]1OC[C@@H]2NCc1ccccc1 [CBK289479]	112
Nc1nnc(CSc2cccc3cccnc23)o1 [CBK021397]	108
CCOCCn1cnc2sc(C(=O)NCc3ccccn3)c(C)c2c1=O [CBK071857]	93.4
COc1ccccc1CC(=O)N1CCN(Cc2ccco2)C[C@@H]1C [CBK285481]	105
O=C(Cn1cnc2ccc([N+](=O)[O-])cc2c1=O)Nc1ccc(C(=O)O)cc1 [CBK297542]	85.5
CNC(=O)C1(Cc2ccc(-c3cccc(C)c3)cc2)CCN(C(=O)C(C)(C)C)CC1 [CBK285755]	98.6
CCNC(=O)NC[C@H]1C[C@@H]2CCN1C[C@@H]2c1cc(-c2ccc(F)cc2)nn1C [CBK289110]	88
